Oligonucleotides are given in HELM: sugar(base)linkage, 5' to 3'; d 2'-deoxyribose, r ribose, m 2'-O-methylribose, p phosphate. ss, as = sense and antisense strand
Also: test concentration or dose not given here.

This series deals with TMEM63B. Nature of the series: reporter assay of Huesken 2005. As to conditions: siRNA.
“RNA1{r(U)p.r(G)p.r(G)p.r(U)p.r(G)p.r(C)p.r(U)p.r(U)p.r(C)p.r(U)p.r(C)p.r(G)p.r(G)p.r(C)p.r(C)p.r(C)p.r(U)p.r(C)p.r(C)p.d(T)p.d(T)}|RNA2{r(G)p.r(G)p.r(A)p.r(G)p.r(G)p.r(G)p.r(C)p.r(C)p.r(G)p.r(A)p.r(G)p.r(A)p.r(A)p.r(G)p.r(C)p.r(A)p.r(C)p.r(C)p.r(A)p.d(C)p.d(A)}$$$RNA1{StrandType:ss}|RNA2{StrandType:as}$” returned a normalised inhibition (eCFP-eYFP dual reporter) of 65.1%.
Under “RNA1{r(G)p.r(A)p.r(U)p.r(A)p.r(C)p.r(U)p.r(G)p.r(U)p.r(G)p.r(G)p.r(A)p.r(C)p.r(C)p.r(C)p.r(C)p.r(A)p.r(G)p.r(A)p.r(A)p.d(T)p.d(T)}|RNA2{r(U)p.r(U)p.r(C)p.r(U)p.r(G)p.r(G)p.r(G)p.r(G)p.r(U)p.r(C)p.r(C)p.r(A)p.r(C)p.r(A)p.r(G)p.r(U)p.r(A)p.r(U)p.r(C)p.d(T)p.d(G)}$$$RNA1{StrandType:ss}|RNA2{StrandType:as}$” stands 73.8%; under “RNA1{r(G)p.r(C)p.r(A)p.r(C)p.r(A)p.r(U)p.r(C)p.r(A)p.r(U)p.r(C)p.r(G)p.r(G)p.r(G)p.r(C)p.r(U)p.r(G)p.r(C)p.r(U)p.r(G)p.d(T)p.d(T)}|RNA2{r(C)p.r(A)p.r(G)p.r(C)p.r(A)p.r(G)p.r(C)p.r(C)p.r(C)p.r(G)p.r(A)p.r(U)p.r(G)p.r(A)p.r(U)p.r(G)p.r(U)p.r(G)p.r(C)p.d(C)p.d(G)}$$$RNA1{StrandType:ss}|RNA2{StrandType:as}$”, 69.9%; under “RNA1{r(A)p.r(U)p.r(C)p.r(U)p.r(G)p.r(C)p.r(G)p.r(A)p.r(A)p.r(A)p.r(U)p.r(A)p.r(C)p.r(A)p.r(U)p.r(C)p.r(G)p.r(C)p.r(U)p.d(T)p.d(T)}|RNA2{r(A)p.r(G)p.r(C)p.r(G)p.r(A)p.r(U)p.r(G)p.r(U)p.r(A)p.r(U)p.r(U)p.r(U)p.r(C)p.r(G)p.r(C)p.r(A)p.r(G)p.r(A)p.r(U)p.d(T)p.d(T)}$$$RNA1{StrandType:ss}|RNA2{StrandType:as}$”, 50.5%.
For “RNA1{r(G)p.r(C)p.r(A)p.r(A)p.r(C)p.r(G)p.r(U)p.r(G)p.r(A)p.r(A)p.r(G)p.r(C)p.r(G)p.r(G)p.r(C)p.r(A)p.r(U)p.r(C)p.r(A)p.d(T)p.d(T)}|RNA2{r(U)p.r(G)p.r(A)p.r(U)p.r(G)p.r(C)p.r(C)p.r(G)p.r(C)p.r(U)p.r(U)p.r(C)p.r(A)p.r(C)p.r(G)p.r(U)p.r(U)p.r(G)p.r(C)p.d(G)p.d(C)}$$$RNA1{StrandType:ss}|RNA2{StrandType:as}$”, the normalised inhibition (eCFP-eYFP dual reporter) worked out at 72.4%.
Substance “RNA1{r(C)p.r(G)p.r(C)p.r(C)p.r(C)p.r(U)p.r(C)p.r(A)p.r(C)p.r(G)p.r(G)p.r(A)p.r(C)p.r(A)p.r(C)p.r(A)p.r(G)p.r(A)p.r(C)p.d(T)p.d(T)}|RNA2{r(G)p.r(U)p.r(C)p.r(U)p.r(G)p.r(U)p.r(G)p.r(U)p.r(C)p.r(C)p.r(G)p.r(U)p.r(G)p.r(A)p.r(G)p.r(G)p.r(G)p.r(C)p.r(G)p.d(T)p.d(C)}$$$RNA1{StrandType:ss}|RNA2{StrandType:as}$” came in with a normalised inhibition (eCFP-eYFP dual reporter) of 59.1%.
With “RNA1{r(G)p.r(C)p.r(C)p.r(U)p.r(A)p.r(C)p.r(G)p.r(C)p.r(C)p.r(U)p.r(G)p.r(G)p.r(A)p.r(U)p.r(G)p.r(A)p.r(U)p.r(G)p.r(U)p.d(T)p.d(T)}|RNA2{r(A)p.r(C)p.r(A)p.r(U)p.r(C)p.r(A)p.r(U)p.r(C)p.r(C)p.r(A)p.r(G)p.r(G)p.r(C)p.r(G)p.r(U)p.r(A)p.r(G)p.r(G)p.r(C)p.d(T)p.d(G)}$$$RNA1{StrandType:ss}|RNA2{StrandType:as}$”, the normalised inhibition (eCFP-eYFP dual reporter) turned out to be 72.3%.
The substance “RNA1{r(U)p.r(G)p.r(C)p.r(A)p.r(G)p.r(C)p.r(G)p.r(A)p.r(G)p.r(U)p.r(C)p.r(C)p.r(C)p.r(U)p.r(G)p.r(C)p.r(A)p.r(C)p.r(A)p.d(T)p.d(T)}|RNA2{r(U)p.r(G)p.r(U)p.r(G)p.r(C)p.r(A)p.r(G)p.r(G)p.r(G)p.r(A)p.r(C)p.r(U)p.r(C)p.r(G)p.r(C)p.r(U)p.r(G)p.r(C)p.r(A)p.d(G)p.d(G)}$$$RNA1{StrandType:ss}|RNA2{StrandType:as}$” displayed a normalised inhibition (eCFP-eYFP dual reporter) of 25.9%.
“RNA1{r(G)p.r(G)p.r(A)p.r(U)p.r(G)p.r(A)p.r(U)p.r(G)p.r(A)p.r(G)p.r(A)p.r(U)p.r(C)p.r(C)p.r(G)p.r(G)p.r(G)p.r(A)p.r(C)p.d(T)p.d(T)}|RNA2{r(G)p.r(U)p.r(C)p.r(C)p.r(C)p.r(G)p.r(G)p.r(A)p.r(U)p.r(C)p.r(U)p.r(C)p.r(A)p.r(U)p.r(C)p.r(A)p.r(U)p.r(C)p.r(C)p.d(T)p.d(T)}$$$RNA1{StrandType:ss}|RNA2{StrandType:as}$” registered a normalised inhibition (eCFP-eYFP dual reporter) of 89.3%.
“RNA1{r(C)p.r(A)p.r(G)p.r(C)p.r(U)p.r(C)p.r(C)p.r(G)p.r(U)p.r(U)p.r(G)p.r(A)p.r(C)p.r(U)p.r(U)p.r(U)p.r(G)p.r(A)p.r(C)p.d(T)p.d(T)}|RNA2{r(G)p.r(U)p.r(C)p.r(A)p.r(A)p.r(A)p.r(G)p.r(U)p.r(C)p.r(A)p.r(A)p.r(C)p.r(G)p.r(G)p.r(A)p.r(G)p.r(C)p.r(U)p.r(G)p.d(G)p.d(A)}$$$RNA1{StrandType:ss}|RNA2{StrandType:as}$” yielded a normalised inhibition (eCFP-eYFP dual reporter) of 84.4%.
In the case of “RNA1{r(U)p.r(C)p.r(U)p.r(U)p.r(C)p.r(A)p.r(U)p.r(C)p.r(C)p.r(U)p.r(C)p.r(C)p.r(U)p.r(C)p.r(U)p.r(U)p.r(C)p.r(U)p.r(U)p.d(T)p.d(T)}|RNA2{r(A)p.r(A)p.r(G)p.r(A)p.r(A)p.r(G)p.r(A)p.r(G)p.r(G)p.r(A)p.r(G)p.r(G)p.r(A)p.r(U)p.r(G)p.r(A)p.r(A)p.r(G)p.r(A)p.d(G)p.d(G)}$$$RNA1{StrandType:ss}|RNA2{StrandType:as}$” it was 58.4%; in that of “RNA1{r(U)p.r(C)p.r(C)p.r(A)p.r(U)p.r(C)p.r(C)p.r(G)p.r(A)p.r(G)p.r(G)p.r(C)p.r(U)p.r(U)p.r(C)p.r(A)p.r(U)p.r(C)p.r(U)p.d(T)p.d(T)}|RNA2{r(A)p.r(G)p.r(A)p.r(U)p.r(G)p.r(A)p.r(A)p.r(G)p.r(C)p.r(C)p.r(U)p.r(C)p.r(G)p.r(G)p.r(A)p.r(U)p.r(G)p.r(G)p.r(A)p.d(G)p.d(A)}$$$RNA1{StrandType:ss}|RNA2{StrandType:as}$”, 65.3%.
“RNA1{r(C)p.r(U)p.r(C)p.r(C)p.r(U)p.r(C)p.r(U)p.r(U)p.r(C)p.r(U)p.r(U)p.r(C)p.r(C)p.r(U)p.r(C)p.r(A)p.r(C)p.r(C)p.r(A)p.d(T)p.d(T)}|RNA2{r(U)p.r(G)p.r(G)p.r(U)p.r(G)p.r(A)p.r(G)p.r(G)p.r(A)p.r(A)p.r(G)p.r(A)p.r(A)p.r(G)p.r(A)p.r(G)p.r(G)p.r(A)p.r(G)p.d(G)p.d(A)}$$$RNA1{StrandType:ss}|RNA2{StrandType:as}$” yielded a normalised inhibition (eCFP-eYFP dual reporter) of 68%.
Under “RNA1{r(U)p.r(C)p.r(A)p.r(C)p.r(C)p.r(A)p.r(C)p.r(C)p.r(A)p.r(U)p.r(G)p.r(G)p.r(A)p.r(C)p.r(A)p.r(A)p.r(G)p.r(U)p.r(U)p.d(T)p.d(T)}|RNA2{r(A)p.r(A)p.r(C)p.r(U)p.r(U)p.r(G)p.r(U)p.r(C)p.r(C)p.r(A)p.r(U)p.r(G)p.r(G)p.r(U)p.r(G)p.r(G)p.r(U)p.r(G)p.r(A)p.d(T)p.d(G)}$$$RNA1{StrandType:ss}|RNA2{StrandType:as}$” stands 67.7%.
Under “RNA1{r(C)p.r(G)p.r(U)p.r(G)p.r(U)p.r(G)p.r(U)p.r(A)p.r(A)p.r(A)p.r(U)p.r(G)p.r(C)p.r(C)p.r(A)p.r(G)p.r(G)p.r(G)p.r(C)p.d(T)p.d(T)}|RNA2{r(G)p.r(C)p.r(C)p.r(C)p.r(U)p.r(G)p.r(G)p.r(C)p.r(A)p.r(U)p.r(U)p.r(U)p.r(A)p.r(C)p.r(A)p.r(C)p.r(A)p.r(C)p.r(G)p.d(T)p.d(T)}$$$RNA1{StrandType:ss}|RNA2{StrandType:as}$” stands 52.1%; under “RNA1{r(C)p.r(C)p.r(C)p.r(A)p.r(U)p.r(C)p.r(A)p.r(U)p.r(C)p.r(A)p.r(C)p.r(C)p.r(C)p.r(A)p.r(G)p.r(U)p.r(U)p.r(C)p.r(U)p.d(T)p.d(T)}|RNA2{r(A)p.r(G)p.r(A)p.r(A)p.r(C)p.r(U)p.r(G)p.r(G)p.r(G)p.r(U)p.r(G)p.r(A)p.r(U)p.r(G)p.r(A)p.r(U)p.r(G)p.r(G)p.r(G)p.d(G)p.d(T)}$$$RNA1{StrandType:ss}|RNA2{StrandType:as}$”, 68.7%; under “RNA1{r(C)p.r(U)p.r(C)p.r(C)p.r(G)p.r(U)p.r(U)p.r(G)p.r(A)p.r(C)p.r(U)p.r(U)p.r(U)p.r(G)p.r(A)p.r(C)p.r(C)p.r(A)p.r(A)p.d(T)p.d(T)}|RNA2{r(U)p.r(U)p.r(G)p.r(G)p.r(U)p.r(C)p.r(A)p.r(A)p.r(A)p.r(G)p.r(U)p.r(C)p.r(A)p.r(A)p.r(C)p.r(G)p.r(G)p.r(A)p.r(G)p.d(C)p.d(T)}$$$RNA1{StrandType:ss}|RNA2{StrandType:as}$”, 98.6%.
As to “RNA1{r(A)p.r(C)p.r(G)p.r(C)p.r(U)p.r(C)p.r(U)p.r(G)p.r(G)p.r(G)p.r(G)p.r(A)p.r(G)p.r(A)p.r(A)p.r(C)p.r(A)p.r(G)p.r(G)p.d(T)p.d(T)}|RNA2{r(C)p.r(C)p.r(U)p.r(G)p.r(U)p.r(U)p.r(C)p.r(U)p.r(C)p.r(C)p.r(C)p.r(C)p.r(A)p.r(G)p.r(A)p.r(G)p.r(C)p.r(G)p.r(U)p.d(G)p.d(T)}$$$RNA1{StrandType:ss}|RNA2{StrandType:as}$”, the normalised inhibition (eCFP-eYFP dual reporter) stood at 48.3%.
As for “RNA1{r(G)p.r(G)p.r(C)p.r(C)p.r(A)p.r(A)p.r(G)p.r(C)p.r(U)p.r(G)p.r(G)p.r(A)p.r(C)p.r(A)p.r(A)p.r(G)p.r(A)p.r(A)p.r(G)p.d(T)p.d(T)}|RNA2{r(C)p.r(U)p.r(U)p.r(C)p.r(U)p.r(U)p.r(G)p.r(U)p.r(C)p.r(C)p.r(A)p.r(G)p.r(C)p.r(U)p.r(U)p.r(G)p.r(G)p.r(C)p.r(C)p.d(G)p.d(G)}$$$RNA1{StrandType:ss}|RNA2{StrandType:as}$”, the normalised inhibition (eCFP-eYFP dual reporter) was 65%.
Substance “RNA1{r(U)p.r(C)p.r(G)p.r(C)p.r(C)p.r(U)p.r(A)p.r(A)p.r(U)p.r(G)p.r(U)p.r(U)p.r(C)p.r(C)p.r(U)p.r(C)p.r(G)p.r(A)p.r(U)p.d(T)p.d(T)}|RNA2{r(A)p.r(U)p.r(C)p.r(G)p.r(A)p.r(G)p.r(G)p.r(A)p.r(A)p.r(C)p.r(A)p.r(U)p.r(U)p.r(A)p.r(G)p.r(G)p.r(C)p.r(G)p.r(A)p.d(G)p.d(C)}$$$RNA1{StrandType:ss}|RNA2{StrandType:as}$” came in with a normalised inhibition (eCFP-eYFP dual reporter) of 77.9%.
